Values of other authors in patent US7727736B2, “Soluble phospholipids for use in clotting factor assays” (The University of North Carolina at Chapel Hill, priority 2003, dated 2010).

Target: T1, factor Va (Bos taurus, UniProt Q28107)
T1 sequence (Q28107 29-741 limits assumed): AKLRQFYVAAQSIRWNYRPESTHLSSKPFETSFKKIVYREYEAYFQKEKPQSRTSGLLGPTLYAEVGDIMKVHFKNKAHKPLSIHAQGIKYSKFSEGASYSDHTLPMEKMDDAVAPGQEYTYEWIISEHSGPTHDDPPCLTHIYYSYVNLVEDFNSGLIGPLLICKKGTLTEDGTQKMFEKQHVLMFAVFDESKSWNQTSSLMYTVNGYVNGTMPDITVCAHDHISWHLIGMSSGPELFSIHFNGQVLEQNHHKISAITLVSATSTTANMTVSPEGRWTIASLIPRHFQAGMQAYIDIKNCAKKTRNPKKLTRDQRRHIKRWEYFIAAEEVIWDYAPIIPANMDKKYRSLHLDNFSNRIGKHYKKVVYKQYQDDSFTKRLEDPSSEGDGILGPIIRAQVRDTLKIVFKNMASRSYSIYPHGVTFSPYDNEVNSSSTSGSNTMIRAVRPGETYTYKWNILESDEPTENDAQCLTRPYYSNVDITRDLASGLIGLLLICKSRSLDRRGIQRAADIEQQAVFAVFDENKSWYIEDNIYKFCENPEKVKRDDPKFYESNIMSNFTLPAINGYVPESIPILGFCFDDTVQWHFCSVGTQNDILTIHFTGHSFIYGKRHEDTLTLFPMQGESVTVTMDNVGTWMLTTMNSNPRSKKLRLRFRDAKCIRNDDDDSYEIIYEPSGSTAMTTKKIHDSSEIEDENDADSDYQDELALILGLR
T1 sequence (Q28107 1565-2211 limits assumed): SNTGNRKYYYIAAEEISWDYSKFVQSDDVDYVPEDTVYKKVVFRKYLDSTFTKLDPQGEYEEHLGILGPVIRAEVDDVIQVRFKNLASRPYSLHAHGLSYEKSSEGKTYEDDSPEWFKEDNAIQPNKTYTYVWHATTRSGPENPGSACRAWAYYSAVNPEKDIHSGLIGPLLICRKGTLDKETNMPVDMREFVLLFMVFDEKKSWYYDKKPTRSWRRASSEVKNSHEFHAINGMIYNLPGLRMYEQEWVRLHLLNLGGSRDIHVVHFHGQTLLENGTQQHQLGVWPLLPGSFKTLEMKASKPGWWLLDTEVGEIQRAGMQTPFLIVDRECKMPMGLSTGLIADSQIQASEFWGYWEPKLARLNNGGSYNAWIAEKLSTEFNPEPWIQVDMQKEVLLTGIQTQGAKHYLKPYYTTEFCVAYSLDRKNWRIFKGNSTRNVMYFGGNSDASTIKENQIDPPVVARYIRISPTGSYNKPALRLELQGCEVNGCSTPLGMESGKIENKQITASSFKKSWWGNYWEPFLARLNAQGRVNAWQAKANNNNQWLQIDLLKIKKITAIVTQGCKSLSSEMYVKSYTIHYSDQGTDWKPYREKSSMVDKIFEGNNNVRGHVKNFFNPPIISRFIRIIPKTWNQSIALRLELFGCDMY
Details: Zhai et al. (2002); read-out: kd of binding to factor Va; cited from earlier work

In the case of CCCCCC(=O)OC[C@H](COP(=O)(O)OC[C@H](N)C(=O)O)OC(=O)CCCCC [C6PS, 1,2-dicaproyl-sn-glycero-3-phospho-L-serine], the Kd is listed as roughly 90 µM.
